# Results as given in patent US9957264B2 (Merck Sharp & Dohme Corp., priority 2013, dated 2018).
# What was measured:
# [1] = target: JAK1 (recombinant purified GST-tagged catalytic domain) (Homo sapiens (Human), UniProt P23458); assay: Jak Biochemical HTRF Assay (JAK1); details: [ATP] 31.8 μM
# In short: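 GST-tagged human catalytic domains of JAK1 or JAK2 phosphorylated a biotinylated peptide substrate for 120 min at room temperature after ATP addition. Reaction quenched with EDTA stop buffer containing streptavidin-Dylight 650 and Eu-pY20 antibody; HTRF 665/615 nm ratio normalized to untreated controls, IC50 from 4-parameter fit.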
# [2] = target: JAK2 (recombinant purified GST-tagged catalytic domain) (Homo sapiens (Human), UniProt O60674); assay: Jak Biochemical HTRF Assay (JAK2); details: [ATP] 8.5 μM
# Sequence of JAK2 (recombinant purified GST-tagged catalytic domain) (O60674 849-1124): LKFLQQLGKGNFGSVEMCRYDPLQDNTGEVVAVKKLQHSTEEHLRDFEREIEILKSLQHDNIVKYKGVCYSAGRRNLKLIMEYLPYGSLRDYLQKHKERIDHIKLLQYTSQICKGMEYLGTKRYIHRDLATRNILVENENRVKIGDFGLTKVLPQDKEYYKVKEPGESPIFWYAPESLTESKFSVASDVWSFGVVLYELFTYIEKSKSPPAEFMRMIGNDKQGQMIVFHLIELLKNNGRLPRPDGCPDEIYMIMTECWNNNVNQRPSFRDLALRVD
# Sequence of JAK1 (recombinant purified GST-tagged catalytic domain) (P23458 875-1153): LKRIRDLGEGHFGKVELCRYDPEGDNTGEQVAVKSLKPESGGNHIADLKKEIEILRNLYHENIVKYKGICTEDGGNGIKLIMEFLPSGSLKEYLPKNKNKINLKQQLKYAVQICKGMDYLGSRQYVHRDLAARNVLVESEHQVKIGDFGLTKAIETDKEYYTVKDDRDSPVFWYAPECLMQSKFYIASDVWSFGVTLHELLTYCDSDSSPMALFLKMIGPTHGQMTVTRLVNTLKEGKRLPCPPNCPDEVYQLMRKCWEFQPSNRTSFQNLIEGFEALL
IC50 [1],IC50 [2],Structure (SMILES)
0.11 nM,0.09 nM,"CC(C)(C)N[C@H](c1ccc(Nc2nn([C@]3(CC#N)CCOC[C@@H]3F)c3cc[nH]c(=O)c23)cc1)C(F)(F)F (single isomer, unassigned) [Example 5-269, 2-((3R,4R or 3S,4S)-4-(3-((4-((R or S)-1-(tert-butylamino)-2,2,2-trifluoroethyl)phenyl)amino)-4-oxo-4,5-dihydro-1H-pyrazolo[4,3-c]pyridin-1-yl)-3-fluorotetrahydro-2H-pyran-4-yl)acetonitrile]"
0.04 nM,0.04 nM,"CC1(C)C(=O)Nc2cc(Nc3nn([C@@]4(CC#N)CCCC[C@H]4F)c4cc[nH]c(=O)c34)ccc21 [Example 21-2, [(1R,2R)-1-{3-[(3,3-dimethyl-2-oxo-2,3-dihydro-1H-indol-6-yl)amino]-4-oxo-4,5-dihydro-1H-pyrazolo[4,3-c]pyridin-1-yl}-2-fluorocyclohexyl]acetonitrile]"
0.38 nM,1.69 nM,"C[C@@H]1CCCC1OC(=O)N1CCC(CC#N)(n2nc(Nc3ccc(S(=O)(=O)N(C)C)cc3)c3c(=O)[nH]ccc32)CC1 (mixture of isomers) [Example 11-2, (trans racemic)-2-methylcyclopentyl 4-(cyanomethyl)-4-(3-((4-(N,N-dimethylsulfamoyl)phenyl)amino)-4-oxo-4,5-dihydro-1H-pyrazolo[4,3-c]pyridin-1-yl)piperidine-1-carboxylate]"
0.15 nM,0.21 nM,"CC(C)(C)OC(=O)[C@@H]1CC[C@@](CC#N)(n2nc(Nc3ccc(C4(C(F)(F)F)CCNC4)cc3)c3c(=O)[nH]ccc32)CO1 (single isomer, unassigned) [Example 5-285, (2S,5S)-tert-butyl 5-(cyanomethyl)-5-(4-oxo-3-((4-((R or S)-3-(trifluoromethyl)pyrrolidin-3-yl)phenyl)amino)-4,5-dihydro-1H-pyrazolo[4,3-c]pyridin-1-yl)tetrahydro-2H-pyran-2-carboxylate]"
0.08 nM,0.33 nM,"CN(C)S(=O)(=O)c1ccc(Nc2nn(C3(CC#N)CCN(C(=O)CCC(F)(F)F)CC3)c3cc[nH]c(=O)c23)cc1 [Example 9-21, 4-({1-[4-(cyanomethyl)-1-(4,4,4-trifluorobutanoyl)piperidin-4-yl]-4-oxo-4,5-dihydro-1H-pyrazolo[4,3-c]pyridin-3-yl}amino)-N,N-dimethylbenzenesulfonamide]"
2.76 nM,12.9 nM,"CC(C)OC(=O)C(C)(C)C(O)(c1ccc(Nc2nn([C@]3(CC#N)CC[C@@H](C(=O)OC(C)(C)C)OC3)c3cc[nH]c(=O)c23)cc1)C(F)(F)F (single isomer, unassigned) [Example 5-162, (2S,5S)-tert-butyl 5-(cyanomethyl)-5-(4-oxo-3-((4-((S or R)-1,1,1-trifluoro-2-hydroxy-4-isopropoxy-3,3-dimethyl-4-oxobutan-2-yl)phenyl)amino)-4,5-dihydro-1H-pyrazolo[4,3-c]pyridin-1-yl)tetrahydro-2H-pyran-2-carboxylate]"
0.66 nM,1.4 nM,"CN(C)S(=O)(=O)c1ccc(Nc2nn(C3(CC#N)CCOCC3)c3cc[nH]c(=O)c23)cc1 [Example 5-254, 4-((1-(4-(cyanomethyl)tetrahydro-2H-pyran-4-yl)-4-oxo-4,5-dihydro-1H-pyrazolo[4,3-c]pyridin-3-yl)amino)-N,N-dimethylbenzenesulfonamide]"
3.78 nM,23.3 nM,"CS(=O)(=O)NC(=O)[C@@H]1CC[C@@](CC#N)(n2nc(Nc3ccc(Cl)cc3)c3c(=O)[nH]ccc32)CO1 [Example 22, (2S,5S)-5-(3-((4-chlorophenyl)amino)-4-oxo-4,5-dihydro-1H-pyrazolo[4,3-c]pyridin-1-yl)-5-(cyanomethyl)-N-(methylsulfonyl)tetrahydro-2H-pyran-2-carboxamide]"
0.26 nM,3.14 nM,"CN(C)S(=O)(=O)c1ccc(Nc2nn(C3(CC#N)CCN(C(=O)CN4CCCC4=O)CC3)c3cc[nH]c(=O)c23)cc1 [Example 9-19, 4-[(1-{4-(cyanomethyl)-1-[(2-oxopyrrolidin-1-yl)acetyl]piperidin-4-yl}-4-oxo-4,5-dihydro-1H-pyrazolo[4,3-c]pyridin-3-yl)amino]-N,N-dimethylbenzenesulfonamide]"
0.13 nM,0.87 nM,"COC(=O)[C@@H]1CC[C@@](CC#N)(n2nc(Nc3ccc(S(C)(=O)=O)cc3)c3c(=O)[nH]ccc32)CO1 (racemic) [Example 5-32, (2S,5S and 2R,5R)-methyl 5-(cyanomethyl)-5-(3-((4-(methylsulfonyl)phenyl)amino)-4-oxo-4,5-dihydro-1H-pyrazolo[4,3-c]pyridin-1-yl)tetrahydro-2H-pyran-2-carboxylate]"
0.18 nM,0.17 nM,"Cc1cc(Nc2nn(C3(CC#N)CCN(C(=O)OC(C)(C)C)CC3)c3cc[nH]c(=O)c23)ccc1C(=O)N1CCOCC1 [Example 21-20, tert-butyl 4-(cyanomethyl)-4-(3-(3-methyl-4-(morpholine-4-carbonyl)phenylamino)-4-oxo-4,5-dihydropyrazolo[4,3-c]pyridin-1-yl)piperidine-1-carboxylate]"
4.76 nM,30.5 nM,"CC(C)(C)OC(=O)c1ccc(Nc2nn(C3(CC#N)CCCC3)c3cc[nH]c(=O)c23)cc1 [Example 5-127, tert-butyl 4-((1-(1-(cyanomethyl)cyclopentyl)-4-oxo-4,5-dihydro-1H-pyrazolo[4,3-c]pyidin-3-yl)amino)benzoate]"
0.12 nM,0.25 nM,"CC(C)(C)OC(=O)[C@@H]1CC[C@@](CC#N)(n2nc(Nc3ccc(S(=O)(=O)C4CC4)cc3)c3c(=O)[nH]ccc32)CO1 [Example 5-236, (2S,5S)-tert-butyl 5-(cyanomethyl)-5-(3-((4-(cyclopropylsulfonyl)phenyl)amino)-4-oxo-4,5-dihydro-1H-pyrazolo[4,3-c]pyridin-1-yl)tetrahydro-2H-pyran-2-carboxylate]"
0.22 nM,2.24 nM,"CNC(=O)c1ccc(Nc2nn(C3(CC#N)CCCC3)c3cc[nH]c(=O)c23)cc1 [Example 5-128, 4-((1-(1-(cyanomethyl)cyclopentyl)-4-oxo-4,5-dihydro-1H-pyrazolo[4,3-c]pyridin-3-yl)amino)-N-methylbenzamide.]"
4.34 nM,12.1 nM,"CC(C)(C)S(=O)(=O)c1ccc(Nc2nn([C@]3(CC#N)CCOC3)c3cc[nH]c(=O)c23)cc1 (single isomer, unassigned) [Example 5-250, (R or S)-2-(3-(3-((4-(tert-butylsulfonyl)phenyl)amino)-4-oxo-4,5-dihydro-1H-pyrazolo[4,3-c]pyridin-1-yl)tetrahydrofuran-3-yl)acetonitrile]"
0.19 nM,0.51 nM,"Cc1cc(Nc2nn([C@]3(CC#N)CC[C@@H](C(=O)OC(C)(C)C)OC3)c3cc[nH]c(=O)c23)ccc1C(=O)N(C)CC(F)(F)F [Example 20-15, (2S,5S)-tert-butyl 5-(cyanomethyl)-5-(3-((3-methyl-4-(methyl(2,2,2-trifluoroethyl)carbamoyl)phenyl)amino)-4-oxo-4,5-dihydro-1H-pyrazolo[4,3-c]pyridin-1-yl)tetrahydro-2H-pyran-2-carboxylate]"
0.09 nM,0.1 nM,"CC(F)(F)C(=O)N1CCC(CC#N)(n2nc(Nc3ccc4c(c3)CN(C(C)(C)C)S4(=O)=O)c3c(=O)[nH]ccc32)CC1 [Example 5-26, 2-(4-(3-((2-(tert-butyl)-1,1-dioxido-2,3-dihydrobenzo [d]isothiazol-5-yl)amino)-4-oxo-4,5-dihydro-1H-pyrazolo[4,3-c]pyridin-1-yl)-1-(2,2-difluoro-propanoyl)piperidin-4-yl) acetonitrile]"
52.2 nM,> 1500 nM,"N#CC[C@]1(n2nc(Nc3ccc(OC(F)(F)F)cc3)c3c(=O)[nH]ccc32)CC[C@@H](NC2CCCCC2)CC1 [Example 18-20, Cis 2-(4-(cyclohexylamino)-1-(4-oxo-3-((4-(trifluoromethoxy)phenyl)amino)-4,5-dihydro-1H-pyrazolo[4,3-c]pyridin-1-yl)cyclohexyl)acetonitrile]"
0.09 nM,0.41 nM,"CS(=O)(=O)c1ccc(Nc2nn(C3(CC#N)CCN(c4ccc(Br)cn4)CC3)c3cc[nH]c(=O)c23)cc1 [Example 15-8, 2-(1-(5-bromopyridin-2-yl)-4-(3-((4-(methylsulfonyl)phenyl)amino)-4-oxo-4,5-dihydro-1H-pyrazolo[4,3-c]pyridin-1-yl)piperidin-4-yl)acetonitrile]"
0.08 nM,0.29 nM,"CN(C)S(=O)(=O)c1ccc(Nc2nn(C3(CC#N)CCN(C(=O)C4CC4)CC3)c3cc[nH]c(=O)c23)cc1 [Example 9-6, 4-({1-[4-(cyanomethyl)-1-(cyclopropylcarbonyl)piperidin-4-yl]-4-oxo-4,5-dihydro-1H-pyrazolo[4,3-c]pyridin-3-yl}amino)-N,N-dimethylbenzenesulfonamide]"
6.33 nM,102 nM,"N#CC[C@]1(n2nc(Nc3ccc(C(F)(F)F)cc3)c3c(=O)[nH]ccc32)CC[C@H](Nc2ccccc2)CC1 [Example 18-4, Trans 2-(1-(4-oxo-3-((4-(trifluoromethyl)phenyl)amino)-4,5-dihydro-1H-pyrazolo[4,3-c]pyridin-1-yl)-4-(phenylamino)cyclohexyl)acetonitrile]"
0.09 nM,0.68 nM,"N#CC[C@]1(n2nc(Nc3ccnc(F)c3)c3c(=O)[nH]ccc32)CCCC[C@H]1F [Example 5-152, 2-((1R,2R)-2-fluoro-1-(3-((2-fluoropyridin-4-yl)amino)-4-oxo-4,5-dihydro-1H-pyrazolo[4,3-c]pyridin-1-yl)cyclohexyl)acetonitrile]"
0.06 nM,0.26 nM,"CCN1Cc2cc(Nc3nn(C4(CC#N)CCN(C(=O)OC)CC4)c4cc[nH]c(=O)c34)ccc2S1(=O)=O [Example 5-72, methyl 4-{3-[(2-ethyl-1,1-dioxo-2,3-dihydro-1,2-benzothiazol-5-yl)amino]-4-oxo-1H,4H,5H-pyrazolo [4,3-c]pyridin-1-yl}-4-(cyanomethyl)piperidine-1-carboxylate]"
